Measurements as given in patent US20230416692A1 (BOARD OF REGENTS, THE UNIVERSITY OF TEXAS SYSTEM, priority 2020, published 2023).
“And” between values parts separate entries of the source, which are not always exact repeats. Identical values can stand only once. Like-named read-outs stand apart in the source and are kept apart here.

Tests used:
SARS-CoV-2-Nluc = assay: microbe, parasite or virus in culture; format: cell-based
plasma protein = settings: data from literature; cited from earlier work
[1] = human exposures in the clinics, cited from earlier work; for Cmax: read-out: Exposure (μM): Cmax
[2] = Severe acute respiratory syndrome coronavirus 2, 48 h
[3] = Severe acute respiratory syndrome coronavirus 2

| Compound | CC50 (A549-hACE2 cells; human) | EC50 (SARS-CoV-2-Nluc; [2]) | further results |
| --- | --- | --- | --- |
| Nc1ccn([C@@H]2O[C@@](CO)(CCl)[C@@H](O)[C@H]2F)c(=O)n1 [ALS-8112] | > 50 µM | > 10 µM |  |
| CC(C)CN(C[C@@H](O)[C@H](Cc1ccccc1)NC(=O)O[C@H]1CCOC1)S(=O)(=O)c1ccc(N)cc1 [Amprenavir] | > 50 µM | > 10 µM | Plasma protein binding (%) (plasma protein): 90%; activity against SARS-CoV-2-Nluc (in words) (SARS-CoV-2-Nluc): inactive |
| COC(=O)N[C@H](C(=O)N[C@@H](Cc1ccccc1)[C@@H](O)CN(Cc1ccc(-c2ccccn2)cc1)NC(=O)[C@@H](NC(=O)OC)C(C)(C)C)C(C)(C)C [Atazanavir] | > 50 µM | > 10 µM | Plasma protein binding (%) (plasma protein): 86%; activity against SARS-CoV-2-Nluc (in words) (SARS-CoV-2-Nluc): inactive |
| O=C1c2c(O)c(=O)ccn2N([C@@H]2c3ccccc3SCc3c2ccc(F)c3F)[C@@H]2COCCN12 [Baloxavir] | 47 ± 1.3 µM | > 10 µM |  |
| O=C(NCc1c(F)cc(F)cc1F)c1cn2c(c(O)c1=O)C(=O)N1[C@H]3CC[C@H](C3)O[C@@H]1C2 [Bictegravir] | > 50 µM | > 10 µM | Plasma protein binding (%) (plasma protein): >99% |
| Nc1ccn(C[C@@H](CO)OCP(=O)(O)O)c(=O)n1 [Cidofovir] | > 50 µM | > 10 µM |  |
| CC(C)c1nc(CN(C)C(=O)N[C@@H](CCN2CCOCC2)C(=O)N[C@H](CC[C@H](Cc2ccccc2)NC(=O)OCc2cncs2)Cc2ccccc2)cs1 [Cobicistat] | 47.3 ± 2.5 µM |  | SI (selectivity index) (SARS-CoV-2-Nluc): 17.3; EC50 (SARS-CoV-2-Nluc; [3]): 0.77 to 2.74 µM |
| CC(C)CN(C[C@@H](O)[C@H](Cc1ccccc1)NC(=O)O[C@H]1CO[C@H]2OCC[C@H]21)S(=O)(=O)c1ccc(N)cc1 [Darunavir] | > 50 µM | > 10 µM | activity against SARS-CoV-2-Nluc (in words) (SARS-CoV-2-Nluc): inactive |
| O=C1Nc2ccc(Cl)cc2[C@@](C#CC2CC2)(C(F)(F)F)O1 [Efavirenz] | 37.6 ± 10.7 µM | > 9.6 µM | Plasma protein binding (%) (plasma protein): 99.5-99.8%; Exposure (μM): Cmin [1]: 5.6 µM; Cmax [1]: 12.9 µM; SI (selectivity index) (SARS-CoV-2-Nluc): <3.9 |
| Nc1nc(=O)n([C@@H]2CS[C@H](CO)O2)cc1F [Emtricitabine] | > 50 µM | > 10 µM | Plasma protein binding (%) (plasma protein): 4%; Cmax [1]: 7.9 µM; activity against SARS-CoV-2-Nluc (in words) (SARS-CoV-2-Nluc): inactive |
| C=C1[C@H](CO)[C@@H](O)C[C@@H]1n1cnc2c(=O)[nH]c(N)nc21 [Entecavir] | > 50 µM | > 10 µM |  |
| NC(=O)c1nc(F)c[nH]c1=O [Favipiravir] | > 50 µM | > 10 µM |  |
| CC(C)OC(=O)[C@H](C)N[P@+]([O-])(OC[C@H]1O[C@@](C#N)(c2ccc3c(N)ncnn23)[C@](C)(O)[C@@H]1OC(=O)C(C)C)Oc1ccccc1 [GS-6620] |  |  | CC50 (A549-hACE2 cells): > 50 µM; EC50 (SARS-CoV-2-Nluc; read-out: EC50): > 10 µM |
| COc1ccc2c(O[C@@H]3C[C@H]4C(=O)N[C@]5(P(=O)(O)Cc6c(F)cccc6F)C[C@H]5CCCCCCC[C@H](NC(=O)OC5CCCC5)C(=O)N4C3)cc(-c3csc(NC(C)C)n3)nc2c1Cl [GS-9256] |  |  | CC50 (A549-hACE2 cells): 31.8 ± 10.9 µM; EC50 (SARS-CoV-2-Nluc; read-out: EC50): > 10 µM |
| CC[C@@H]1C[C@]1(NC(=O)[C@@H]1C[C@@H](Oc2cc(-c3csc(NC(C)C)n3)nc3c(Cl)c(OCCN4CCOCC4)ccc23)CN1C(=O)[C@@H](NC(=O)O[C@@H]1C[C@@H]2C[C@@H]2C1)C(C)(C)C)C(=O)O [GS-9451] |  |  | CC50 (A549-hACE2 cells): > 50 µM; EC50 (SARS-CoV-2-Nluc; read-out: EC50): > 10 µM |
| C=CC(=O)N1CCC[C@@H](n2nc(-c3ccc(Oc4ccccc4)cc3)c3c(N)ncnc32)C1 [Ibrutinib] | > 50 µM | > 10 µM |  |
| CC(C)(C)NC(=O)[C@@H]1CN(Cc2cccnc2)CCN1C[C@@H](O)C[C@@H](Cc1ccccc1)C(=O)N[C@H]1c2ccccc2C[C@H]1O [Indinavir] | > 50 µM | > 10 µM | activity against SARS-CoV-2-Nluc (in words) (SARS-CoV-2-Nluc): inactive |
| COC(=O)N[C@H](C(=O)N1CC2(CC2)C[C@H]1c1ncc(-c2ccc3c(c2)C(F)(F)c2cc(-c4ccc5nc([C@@H]6[C@H]7CC[C@H](C7)N6C(=O)[C@@H](NC(=O)OC)C(C)C)[nH]c5c4)ccc2-3)[nH]1)C(C)C [Ledapisvir] | > 50 µM | > 10 µM | activity against SARS-CoV-2-Nluc (in words) (SARS-CoV-2-Nluc): inactive |
| Cc1cccc(C)c1OCC(=O)N[C@@H](Cc1ccccc1)[C@@H](O)C[C@H](Cc1ccccc1)NC(=O)[C@H](C(C)C)N1CCCNC1=O [Lopinavir] | 31.5 ± 2.5 µM | 8 to 9 µM | Plasma protein binding (%) (plasma protein): 98-99%; EC50 (SARS-CoV-2-Nluc): 9 ± 0.42 µM |

| Compound | CC50 (A549-hACE2 cells; human) | EC50 (SARS-CoV-2-Nluc; [2]) | further results |
| --- | --- | --- | --- |
| C[C@@]1(O)[C@H](O)[C@@H](CO)O[C@H]1n1ccc2c(N)ncnc21 [MK-0608] |  |  | CC50 (A549-hACE2 cells): > 50 µM; EC50 (SARS-CoV-2-Nluc; read-out: EC50): > 10 µM |
| Cc1c(O)cccc1C(=O)N[C@@H](CSc1ccccc1)[C@H](O)CN1C[C@H]2CCCC[C@H]2C[C@H]1C(=O)NC(C)(C)C [Nelfinavir] | 12 ± 1.3 µM | 0.77 to 2.74 µM | Plasma protein binding (%) (plasma protein): >98%; Exposure (μM): Cmin [1]: 2.6 µM; Cmax [1]: 8.3 µM; EC50 (SARS-CoV-2-Nluc): 0.77 µM; SI (selectivity index) (SARS-CoV-2-Nluc): 16 and 15.7; EC50 (SARS-CoV-2-Nluc; [3]): 0.77 to 2.74 µM |
| O=C(Nc1ccc([N+](=O)[O-])cc1Cl)c1cc(Cl)ccc1O [Niclosamide] | 1.28 ± 0.23 µM | 0.715 µM | SI (selectivity index) (SARS-CoV-2-Nluc): 1.8 |
| CC(C)[C@@]1(C(=O)N[C@H]2CC(=O)O[C@]2(O)CF)CC(c2nccc3ccccc23)=NO1 [Nivocasan] |  |  | CC50 (A549-hACE2 cells): > 50 µM; activity against SARS-CoV-2-Nluc (in words) (SARS-CoV-2-Nluc): inactive; EC50 (SARS-CoV-2-Nluc; read-out: EC50): > 10 µM |
| CCC(CC)O[C@@H]1C=C(C(=O)O)C[C@H](N)[C@H]1NC(C)=O [Oseltamivir carboxylate] | > 50 µM | > 10 µM |  |
| CCOc1nc(N)nc2c1ncn2[C@@H]1O[C@@H]2COP(=O)(OC(C)C)O[C@H]2[C@@]1(C)F (stereo partly drawn) [PSI-352938] | > 50 µM | > 10 µM |  |
| Cc1cn2nc([C@@H]3CCCCN3C(=O)c3cc(Cl)ccc3NS(C)(=O)=O)cc2nc1N1CC[C@H](N)C1 [Presatovir] |  | 2.53 µM |  |
| CC1=CC[C@H](C(=O)N(c2cc(C#CC(C)(C)C)sc2C(=O)O)[C@H]2CC[C@](O)(CO[C@H]3CCOC3)CC2)CC1 [Radalbuvir] | > 50 µM | > 10 µM |  |
| NC(=O)c1ncn([C@@H]2O[C@H](CO)[C@@H](O)[C@H]2O)n1 [Ribavirin] | > 50 µM | > 10 µM |  |
| Cc1cc(/C=C/C#N)cc(C)c1Nc1ccnc(Nc2ccc(C#N)cc2)n1 [Rilpivirine] | 14.6 ± 1.6 µM | 7.8 ± 1.04 µM | Plasma protein binding (%) (plasma protein): 99.7%; Exposure (μM): Cmin [1]: 0.30 µM; Cmax [1]: 0.83 µM |
| CC(C)c1nc(CN(C)C(=O)N[C@H](C(=O)N[C@@H](Cc2ccccc2)C[C@H](O)[C@H](Cc2ccccc2)NC(=O)OCc2cncs2)C(C)C)cs1 [Ritonavir] |  | > 10 µM | activity against SARS-CoV-2-Nluc (in words) (SARS-CoV-2-Nluc): inactive |
| Nc1ncnc2c1ncn2[C@@H]1O[C@H](OCP(=O)(O)O)C=C1F [Rovafovir] |  |  | CC50 (A549-hACE2 cells): > 50 µM; Plasma protein binding (%) (plasma protein): 58%; EC50 (SARS-CoV-2-Nluc; read-out: EC50): > 10 µM |
| CCOC(=O)/C=C/[C@H](C[C@@H]1CCNC1=O)NC(=O)[C@@H](CC(=O)[C@@H](NC(=O)c1cc(C)on1)C(C)C)Cc1ccc(F)cc1 [Rupintrivir] | > 50 µM |  | EC50 (SARS-CoV-2-Nluc): 1.87 ± 0.47 µM; SI (selectivity index) (SARS-CoV-2-Nluc): >26.7; EC50 (SARS-CoV-2-Nluc; [3]): 0.77 to 2.74 µM |
| CC(C)(C)NC(=O)[C@@H]1C[C@@H]2CCCC[C@@H]2CN1C[C@@H](O)[C@H](Cc1ccccc1)NC(=O)[C@H](CC(N)=O)NC(=O)c1ccc2ccccc2n1 [Saquinavir] | 35.1 ± 11.7 µM | 8 to 9 µM | Plasma protein binding (%) (plasma protein): 98%; Exposure (μM): Cmin [1]: 0.65 µM; Cmax [1]: 3.7 µM; EC50 (SARS-CoV-2-Nluc): 8.95 ± 0.31 µM; SI (selectivity index) (SARS-CoV-2-Nluc): 3.9 |
| CC(C)OC(=O)[C@H](C)N[P@](=O)(OC[C@H]1O[C@@H](n2ccc(=O)[nH]c2=O)[C@](C)(F)[C@@H]1O)Oc1ccccc1 [Sofosbuvir] | > 50 µM | > 10 µM | activity against SARS-CoV-2-Nluc (in words) (SARS-CoV-2-Nluc): inactive |
| Fc1ccccc1-c1nc2ccn(Cc3ccc(-c4ccc(C(F)(F)F)cc4C(F)(F)F)nn3)cc-2n1 [Tegobuvir] | 17.9 ± 3.1 µM | > 10 µM |  |
| CC#CC(=O)N1CC[C@@H](n2c(=O)n(-c3ccc(Oc4ccccc4)cc3)c3c(N)ncnc32)C1 [Tirabrutinib] | > 50 µM | > 10 µM |  |
| COC[C@H]1C[C@@H](c2ncc(-c3ccc4c(c3)COc3cc5c(ccc6nc([C@@H]7CC[C@H](C)N7C(=O)[C@@H](NC(=O)OC)C(C)C)[nH]c65)cc3-4)[nH]2)N(C(=O)[C@H](NC(=O)OC)c2ccccc2)C1 [Velpatasvir] | > 50 µM | > 10 µM | activity against SARS-CoV-2-Nluc (in words) (SARS-CoV-2-Nluc): inactive |
| Voxilaprevir |  |  | CC50 (A549-hACE2 cells): 16 ± 1.2 µM; EC50 (SARS-CoV-2-Nluc; read-out: EC50): > 10 µM |
